The values below come from the SangsterLogP compilation.

The data set can be described thus: method code SF-AS, from DOI: 10.1021/jo00922a017. The note with it: pH 1.0.
The compound `O=S(=O)(Nc1ccc(-c2ccccc2)cc1)C(F)(F)F` yielded a logD of 4.97.

In turn, `O=S(=O)(Nc1ccccc1)C(F)F` gave a logD of 1.95.

Take `O=S(=O)(Nc1cccc(F)c1)C(F)(F)F`: the logD was 3.42.

As to `O=S(=O)(Nc1ccc(C(F)(F)F)cc1)C(F)(F)F`, the logD is 4.47.

The compound `Cc1ccc(NS(=O)(=O)C(F)(F)F)cc1` registered a log distribution coefficient (logD) of 3.6.

Compound `CS(=O)(=O)Nc1ccc(Cl)cc1` had a logD of 1.85.

For the compound `O=S(=O)(Nc1cccc(C(F)(F)F)c1)C(F)(F)F`, the logD turned out to be 4.5.

In the case of `CC(=O)c1cccc(NS(=O)(=O)C(F)(F)F)c1`, the logD is 2.78.

The compound `CS(=O)(=O)c1ccc(NS(=O)(=O)C(F)(F)F)cc1` yielded a logD of 1.99.

Regarding `O=S(=O)(Nc1cccc(O)c1)C(F)(F)F`, the logD turned out to be 2.51.

In the case of `COc1cccc(NS(=O)(=O)C(F)(F)F)c1`, the logD is 3.13.

Turning to `CC(=O)c1ccc(NS(=O)(=O)C(F)(F)F)cc1`, the logD came to 2.83.

Take `O=S(=O)(Nc1ccc(Cl)cc1)C(F)(F)F`: the logD was determined as 3.96.

`O=S(=O)(CF)Nc1ccccc1`: the logD was determined as 1.35.

Compound `O=S(=O)(Nc1cccc(Br)c1)C(F)(F)F` showed a logD of 3.82.

Compound `CS(=O)(=O)c1cccc(NS(=O)(=O)C(F)(F)F)c1` yielded a log distribution coefficient (logD) of 1.85.

Consider `O=S(=O)(Nc1ccc(Cl)cc1Cl)C(F)(F)F`, for which the log distribution coefficient (logD) came out at 3.88.

Take `O=C(c1ccccc1)c1ccc(NS(=O)(=O)C(F)(F)F)cc1`: the logD worked out at 4.28.

`O=S(=O)(CF)Nc1ccc(Cl)cc1` showed a logD of 2.25.

Turning to `O=S(=O)(Nc1cccc(Cl)c1)C(F)(F)F`, the logD is 4.

Consider `O=S(=O)(Nc1ccccc1)C(F)(F)F`, for which the logD was determined as 3.05.

`O=S(=O)(Nc1ccc(Cl)cc1)C(F)F`: the logD was determined as 2.84.

In turn, `O=S(=O)(Nc1ccc(F)cc1F)C(F)(F)F` had a logD of 3.06.

Consider `COc1ccc(NS(=O)(=O)C(F)(F)F)cc1`, for which the logD worked out at 3. This logD and that of the compound before are within 0.2 log units of each other.

Compound `O=S(=O)(Nc1ccc(F)cc1)C(F)(F)F` had a logD of 3.25.

In the case of `O=S(=O)(Nc1ccc(I)cc1)C(F)(F)F`, the logD was determined as 4.39.

What is called logD is lipophilicity at a set pH, counting ionised and neutral species. A higher logD goes with a more lipophilic compound.
